How the values were obtained:
Type in all cases: in vivo
Settings in all cases: Rate 1000 g/ha; evaluated after 13 days
[1] = system: Abutilon threophrasti (ABUTH); assay: B1a pre-emergence herbicidal activity
Method: (§1) Seeds of a variety of test species were sown in standard soil in pots: Amaranthus retroflexus (AMARE), Setaria faberi (SETFA), Zea mays (ZEAMX), Abutilon threophrasti (ABUTH), Echinochloa crus-galli (ECHCG), Lolium perenne (LOLPE). After cultivation for one day (pre-emergence) under controlled conditions in a glasshouse (at 24/16° C., day/night; 14 hours light; 65% humidity), the plants were sprayed with an aqueous spray solution derived from the formulation of the technical active ingredient in acetone/water (50:50) solution containing 0.5% Tween 20 (polyoxyethelyene sorbitan monolaurate, CAS RN 9005-64-5). The test plants were then grown in a glasshouse under controlled conditions (at 24/16° C., day/night; 14 hours light; 65% humidity) and watered twice daily. After 13 days, the test was evaluated (5=total damage to plant; 0=no damage to plant). Results are shown below in Table 4

[2] = system: Amaranthus retroflexus (AMARE); assay: B1a pre-emergence herbicidal activity
Method: as §1

[3] = system: Echinochloa crus-galli (ECHCG); assay: B1a pre-emergence herbicidal activity
Method: as §1

Lolium perenne (LOLPE) [4] = assay: B1a pre-emergence herbicidal activity
Method: as §1

Setaria faberi (SETFA) [5] = assay: B1a pre-emergence herbicidal activity
Method: as §1

Zea mays (ZEAMX) [6] = assay: B1a pre-emergence herbicidal activity
Method: as §1

[7] = system: Abutilon threophrasti (ABUTH); assay: B2a post-emergence herbicidal activity
Method: (§2) Seeds of a variety of test species were sown in standard soil in pots: Amaranthus retroflexus (AMARE), Setaria faberi (SETFA), Zea mays (ZEAMX), Abutilon threophrasti (ABUTH), Echinochloa crus-galli (ECHCG), Lolium perenne (LOLPE). After 8 days cultivation (post-emergence) under controlled conditions in a glasshouse (at 24/16° C., day/night; 14 hours light; 65% humidity), the plants were sprayed with an aqueous spray solution derived from the formulation of the technical active ingredient in acetone/I water (50:50) solution containing 0.5% Tween 20 (polyoxyethelyene sorbitan monolaurate, CAS RN 9005-64-5). The test plants were then grown in a glasshouse under controlled conditions (at 24/16° C., day/night; 14 hours light; 65% humidity) and watered twice daily. After 13 days, the test was evaluated (5=total damage to plant; 0=no damage to plant).

[8] = system: Amaranthus retroflexus (AMARE); assay: B2a post-emergence herbicidal activity
Method: as §2

[9] = system: Echinochloa crus-galli (ECHCG); assay: B2a post-emergence herbicidal activity
Method: as §2

Lolium perenne (LOLPE) [10] = assay: B2a post-emergence herbicidal activity
Method: as §2

Setaria faberi (SETFA) [11] = assay: B2a post-emergence herbicidal activity
Method: as §2

Zea mays (ZEAMX) [12] = assay: B2a post-emergence herbicidal activity
Method: as §2

[13] = system: Alopecurus myosuroides (ALOMY); assay: B1 pre-emergence herbicidal activity
Method: as §1, with “Triticum aestivium (TRZAW), Oryza sativa (ORYSA), Avena fatua (AVEFA), Alopecurus myosuroides (ALOMY),” for “Amaranthus retroflexus (AMARE), Setaria faberi (SETFA), Zea mays (ZEAMX), Abutilon threophrasti (ABUTH),”, “plant).” for “plant). Results are shown below in Table 4”

Avena fatua (AVEFA) [14] = assay: B1 pre-emergence herbicidal activity
Method: as §1, with “Triticum aestivium (TRZAW), Oryza sativa (ORYSA), Avena fatua (AVEFA), Alopecurus myosuroides (ALOMY),” for “Amaranthus retroflexus (AMARE), Setaria faberi (SETFA), Zea mays (ZEAMX), Abutilon threophrasti (ABUTH),”, “plant).” for “plant). Results are shown below in Table 4”

[15] = system: Echinochloa crus-galli (ECHCG); assay: B1 pre-emergence herbicidal activity
Method: as §1, with “Triticum aestivium (TRZAW), Oryza sativa (ORYSA), Avena fatua (AVEFA), Alopecurus myosuroides (ALOMY),” for “Amaranthus retroflexus (AMARE), Setaria faberi (SETFA), Zea mays (ZEAMX), Abutilon threophrasti (ABUTH),”, “plant).” for “plant). Results are shown below in Table 4”

Lolium perenne (LOLPE) [16] = assay: B1 pre-emergence herbicidal activity
Method: as §1, with “Triticum aestivium (TRZAW), Oryza sativa (ORYSA), Avena fatua (AVEFA), Alopecurus myosuroides (ALOMY),” for “Amaranthus retroflexus (AMARE), Setaria faberi (SETFA), Zea mays (ZEAMX), Abutilon threophrasti (ABUTH),”, “plant).” for “plant). Results are shown below in Table 4”

Oryza sativa (ORYSA) [17] = assay: B1 pre-emergence herbicidal activity
Method: as §1, with “Triticum aestivium (TRZAW), Oryza sativa (ORYSA), Avena fatua (AVEFA), Alopecurus myosuroides (ALOMY),” for “Amaranthus retroflexus (AMARE), Setaria faberi (SETFA), Zea mays (ZEAMX), Abutilon threophrasti (ABUTH),”, “plant).” for “plant). Results are shown below in Table 4”

[18] = system: Triticum aestivium (TRZAW); assay: B1 pre-emergence herbicidal activity
Method: as §1, with “Triticum aestivium (TRZAW), Oryza sativa (ORYSA), Avena fatua (AVEFA), Alopecurus myosuroides (ALOMY),” for “Amaranthus retroflexus (AMARE), Setaria faberi (SETFA), Zea mays (ZEAMX), Abutilon threophrasti (ABUTH),”, “plant).” for “plant). Results are shown below in Table 4”

[19] = system: Alopecurus myosuroides (ALOMY); assay: B2 post-emergence herbicidal activity
Method: as §2, with “Triticum aestivium (TRZAW), Oryza sativa (ORYSA), Avena fatua (AVEFA), Alopecurus myosuroides (ALOMY),” for “Amaranthus retroflexus (AMARE), Setaria faberi (SETFA), Zea mays (ZEAMX), Abutilon threophrasti (ABUTH),”, “acetone/water” for “acetone/I water”

Avena fatua (AVEFA) [20] = assay: B2 post-emergence herbicidal activity
Method: as §2, with “Triticum aestivium (TRZAW), Oryza sativa (ORYSA), Avena fatua (AVEFA), Alopecurus myosuroides (ALOMY),” for “Amaranthus retroflexus (AMARE), Setaria faberi (SETFA), Zea mays (ZEAMX), Abutilon threophrasti (ABUTH),”, “acetone/water” for “acetone/I water”

[21] = system: Echinochloa crus-galli (ECHCG); assay: B2 post-emergence herbicidal activity
Method: as §2, with “Triticum aestivium (TRZAW), Oryza sativa (ORYSA), Avena fatua (AVEFA), Alopecurus myosuroides (ALOMY),” for “Amaranthus retroflexus (AMARE), Setaria faberi (SETFA), Zea mays (ZEAMX), Abutilon threophrasti (ABUTH),”, “acetone/water” for “acetone/I water”

Lolium perenne (LOLPE) [22] = assay: B2 post-emergence herbicidal activity
Method: as §2, with “Triticum aestivium (TRZAW), Oryza sativa (ORYSA), Avena fatua (AVEFA), Alopecurus myosuroides (ALOMY),” for “Amaranthus retroflexus (AMARE), Setaria faberi (SETFA), Zea mays (ZEAMX), Abutilon threophrasti (ABUTH),”, “acetone/water” for “acetone/I water”

Oryza sativa (ORYSA) [23] = assay: B2 post-emergence herbicidal activity
Method: as §2, with “Triticum aestivium (TRZAW), Oryza sativa (ORYSA), Avena fatua (AVEFA), Alopecurus myosuroides (ALOMY),” for “Amaranthus retroflexus (AMARE), Setaria faberi (SETFA), Zea mays (ZEAMX), Abutilon threophrasti (ABUTH),”, “acetone/water” for “acetone/I water”

[24] = system: Triticum aestivium (TRZAW); assay: B2 post-emergence herbicidal activity
Method: as §2, with “Triticum aestivium (TRZAW), Oryza sativa (ORYSA), Avena fatua (AVEFA), Alopecurus myosuroides (ALOMY),” for “Amaranthus retroflexus (AMARE), Setaria faberi (SETFA), Zea mays (ZEAMX), Abutilon threophrasti (ABUTH),”, “acetone/water” for “acetone/I water”

SMILES	Control of ABUTH after pre-emergence application (damage score 0-5) [1]	Control of AMARE after pre-emergence application (damage score 0-5) [2]	Control of ECHCG after pre-emergence application (damage score 0-5) [3]	Control of LOLPE after pre-emergence application (damage score 0-5) (Lolium perenne (LOLPE) [4])	Control of SETFA after pre-emergence application (damage score 0-5) (Setaria faberi (SETFA) [5])	Control of ZEAMX after pre-emergence application (damage score 0-5) (Zea mays (ZEAMX) [6])	Control of ABUTH after post-emergence application (damage score 0-5) [7]	Control of AMARE after post-emergence application (damage score 0-5) [8]	Control of ECHCG after post-emergence application (damage score 0-5) [9]	Control of LOLPE after post-emergence application (damage score 0-5) (Lolium perenne (LOLPE) [10])	Control of SETFA after post-emergence application (damage score 0-5) (Setaria faberi (SETFA) [11])	Control of ZEAMX after post-emergence application (damage score 0-5) (Zea mays (ZEAMX) [12])	Control of ALOMY after pre-emergence application (damage score 0-5) [13]	Control of AVEFA after pre-emergence application (damage score 0-5) (Avena fatua (AVEFA) [14])	Control of ECHCG after pre-emergence application (damage score 0-5) [15]	Control of LOLPE after pre-emergence application (damage score 0-5) (Lolium perenne (LOLPE) [16])	Control of ORYSA after pre-emergence application (damage score 0-5) (Oryza sativa (ORYSA) [17])	Control of TRZAW after pre-emergence application (damage score 0-5) [18]	Control of ALOMY after post-emergence application (damage score 0-5) [19]	Control of AVEFA after post-emergence application (damage score 0-5) (Avena fatua (AVEFA) [20])	also measured
CCOC(=O)C(=O)N(C)c1cn(-c2cncnc2)nc1C(F)(F)F [Compound A43]	0	0	0	0	0	0	2	1	1	0	1	2									
Cc1nn(-c2cncnc2)cc1N(C)C(=O)Nc1c(C)noc1C [Compound A45]	0	0	0	0	0	0	0	0	0	0	0	0									
CN(C(=O)N(C)C(C)(C)C)c1cn(-c2cncnc2)nc1C(F)(F)F [Compound A51]													0	0	1	0	1	0	1	2	Control of ECHCG after post-emergence application (damage score 0-5) [21]: 2; Control of LOLPE after post-emergence application (damage score 0-5) (Lolium perenne (LOLPE) [22]): 1; Control of ORYSA after post-emergence application (damage score 0-5) (Oryza sativa (ORYSA) [23]): 0; Control of TRZAW after post-emergence application (damage score 0-5) [24]: 2
Cc1nn(-c2cncnc2)cc1N(C)C(=O)Nc1ccc(C#N)cc1 [Compound A52]													0	0	0	0	0	0	0	0	Control of ECHCG after post-emergence application (damage score 0-5) [21]: 0; Control of LOLPE after post-emergence application (damage score 0-5) (Lolium perenne (LOLPE) [22]): 0; Control of ORYSA after post-emergence application (damage score 0-5) (Oryza sativa (ORYSA) [23]): 0; Control of TRZAW after post-emergence application (damage score 0-5) [24]: 0

Source: US10905123B2, “Herbicidal compounds” (Syngenta Participations AG, priority 2015, dated 2021)
